These results are taken from patent US8609644B2, “Amino derivatives of androstanes and androstenes as medicaments for cardiovascular disorders” (priority 2006, dated 2013).

pIC50: −log10 of the molar value. Counter-ions that a name gives are not always drawn. Like-named read-outs stand apart in the source and are kept apart here.

In one series the target is Na+, K+-ATPase (Canis lupus familiaris, UniProt P50997). Put plainly: biochemical. The arrangement: species or system dog.
The subject of the next series is fresh rat hepatocytes. Put plainly: Metabolism in fresh rat hepatocytes. Conditions: for % of compound metabolized after 60 minutes: fresh rat hepatocytes, test item nominal concentration 45 μM.
For series [1], the system named is hypertensive ouabain-sensitive rats (os rats). The series can be described thus: Systolic blood pressure fall in hypertensive ouabain-sensitive rats (OS rats). The series is classed as in vivo, rat. Conditions: 10 μg/kg/day by mouth for four weeks; for HR / SBP: measured 6 hours after the treatment; for SBP: tail-cuff. The protocol:
The ability of these compounds to lower blood pressure was tested by using an animal model with induced hypertension, in particular, rats made hypertensive by chronic infusion of ouabain, according to Ferrari P., et al. J. Pharm. Exp. Ther. 1998, 285, 83-94.
The procedure adopted to test the antihypertensive activity of the compounds on the above mentioned model was the following: systolic blood pressure (SBP) and heart rate (HR) were measured by an indirect tail-cuff method. The blood pressure lowering effect was measured in hypertensive ouabain-sensitive rats. The compound, suspended in Methocel 0.5% (w/v), was administered daily at the dose of 10 μg/kg/day by mouth for four weeks. SBP and HR were measured weekly 6 hours after the treatment. The comparison are ouabain sensitive rats (OS rats) and non hypertensive rats (control), both treated only with Methocel 0.5% (w/v). As shown in the following Table 4, treatment with a compound of the present invention lowers the blood pressure of OS rats (170 mm Hg) to almost the level of control rats (150 mm Hg).

A further series relates to anesthetized guinea-pig. The series can be described thus: Inotropic effect and lethal dose, slow intravenous infusion (over 90 minutes) in anesthetized guinea-pig. Conditions: for ED80 / ED (max) / Emax: Cavia porcellus, iv, 1.5 h; for ED80: read-out: ED80 (inotropic potency, dose increasing +dP/dTmax by 80%); for ED (max): read-out: EDmax (dose inducing maximum positive inotropic effect); for Emax: read-out: Emax % increase in +dP/dTmax; for Lethal dose/ED80 (safety ratio): calculated in the died animals; for % decrease from Emax after 20 min from the end of the infusion: duration of the inotropic effect; for Maximum dose infused: maximum dose infused in the survived animals.

The mark [2] stands for this setting: read-out: Na+, K+-ATPase Inhibition IC50.
Where [3] appears, read: dog kidney enzyme, read-out: Na+, K+-ATPase Inhibition IC50.
[4] abbreviates: slow i.v. infusion over 90 minutes.

For the molecule `CNCCCON=C1CC[C@@]2(C)C(C1)C(=NOC)C[C@@H]1[C@@H]2CC[C@]2(C)C(=O)CC[C@@H]12.Cl` (some centres unmarked) [I-ci, (E,Z) 3-(3-N-Methylaminopropoxyimino)-6-(E)-methoxyiminoandrostan-17-one hydrochloride], the pIC50 on Na+, K+-ATPase (setting [2]) is 6.48. Besides, the “% of compound metabolized after 60 minutes” value (shortened to “% of compound metabolized”) in the series with fresh rat hepatocytes is on record as 41%.
For `COC1CC2CC(=NOCCN)CCC2(C)C2CCC3(C)C(=O)CCC3C12` (mixture of isomers) [I-ee, (E,Z) 3-(2-Aminoethoxyimino)-7α-methoxyandrostane-17-one hemifumarate], the pIC50 on Na+, K+-ATPase (setting [2]) is 4.85. In series [1], the HR % beats/min result is on record as “+5.1%”, the “SBP - % (fall vs OS rats)” value was determined as 11.0%, the “SBP - mm Hg (fall vs OS rats)” value was 19.0 mm Hg and the HR was found to be 381 beats/min. Also, the SBP in series [1] is given as 151.0 mm Hg. The “% of compound metabolized” value in the series on fresh rat hepatocytes stood at 22%.
As to `CON=C1CC2CC(=NOCCN)CCC2(C)C2CCC3(C)C(=O)CCC3C12` (mixture of isomers) [I-bt, (E,Z)-3-(2-Aminoethoxyimino)-7-(E)-methoxyiminoandrostan-17-one fumarate], the negative-log IC50 (pIC50) on Na+, K+-ATPase (setting [3]) is 4.92. Further, in series [1], the HR % beats/min is 0%, the “SBP - % (fall vs OS rats)” value is listed as 8.3%, the “SBP - mm Hg (fall vs OS rats)” value is 14.2 mm Hg and the HR was found to be 368 beats/min. Moreover, in series [1], the SBP turned out to be 155.8 mm Hg.
On Na+, K+-ATPase (Na+, K+-ATPase Inhibition IC50), `CO/N=C1\C[C@H]2[C@@H]3CCC(=O)[C@@]3(C)CC[C@@H]2[C@@]2(C)CCC(=NOCCN)C[C@]12O` (mixture of isomers) [I-bp, (E,Z)-3-(2-Aminoethoxyimino)-5α-hydroxy-6-(E)-methoxyiminoandrostane-17-one fumarate] gave a negative logarithm of the IC50 (pIC50) of 7.40. The “% of compound metabolized” value in the series on fresh rat hepatocytes worked out at 32%.
For `C[C@]12CCC(=NOCCN)CC1C(=O)C[C@@H]1[C@@H]2CC[C@]2(C)C(=O)CC[C@@H]12.Cl` (mixture of isomers) [compd 22b, (EZ) 3-(2-aminoethoxyimino)androstane-6,17-dione hydrochloride, reference compound], the “% of compound metabolized” value in the series on fresh rat hepatocytes was 95%. Besides, the “metabolism in fresh rat hepatocytes (in words)” value in the series on fresh rat hepatocytes (within 60 minutes) was “almost completely metabolized”. For the same molecule, in the series on anesthetized guinea-pig, the ED80 stood at 1.82 µmol/kg, the ED (max) was 5.74 µmol/kg, the Emax came to 182% and the “Lethal dose/ED80 (safety ratio)” value is recorded as 22.6. In addition, in the series on anesthetized guinea-pig, the “% decrease from Emax after 20 min from the end of the infusion” value (shortened to “% decrease from Emax after 20 min”) stood at 100% and the Maximum dose infused was 32.1 µmol/kg. The Dead/treated in the series with anesthetized guinea-pig (setting [4]) is listed as 7/8.
As to `CC12CCC3C(C(O)C(CO)C4CC(=NOCCN)CCC43C)C1CCC2=O` (mixture of isomers) [I-ej, (E,Z) 3-(2-Aminoethoxyimino)-6α-hydroxymethyl-7α-hydroxyandrostane-17-one hydrochloride], the pIC50 on Na+, K+-ATPase (setting [3]) was 7.66. Also, the “% of compound metabolized” value in the series on fresh rat hepatocytes turned out to be 5%. For the same molecule, in the series with anesthetized guinea-pig, the ED80 worked out at 0.34 µmol/kg, the ED (max) came out at 7.55 µmol/kg, the Emax was found to be 258% and the “Lethal dose/ED80 (safety ratio)” value is 50. For the same molecule, in the series on anesthetized guinea-pig, the Maximum dose infused was determined as 25.0 µmol/kg. In the series with anesthetized guinea-pig (setting [4]), the Dead/treated was 3/3.
As to `C=C1C[C@@H]2[C@H](CC[C@]3(C)C(=O)CC[C@@H]23)[C@@]2(C)CC/C(=N\OCCN)CC12.Cl` (some centres unmarked) [I-ai, (E) 3-(2-Aminoethoxyimino)-6-methyleneandrostan-17-one hydrochloride], the pIC50 against Na+, K+-ATPase (Na+, K+-ATPase Inhibition IC50) was 7.08. Also, the “% of compound metabolized” value with fresh rat hepatocytes was 27%. In the series on anesthetized guinea-pig, the ED80 stood at 1.2 µmol/kg, the ED (max) came to 2.99 µmol/kg, the Emax came to 235% and the “% decrease from Emax after 20 min” value was 100%. The molecule also showed a Maximum dose infused in the series on anesthetized guinea-pig of 3.2 µmol/kg. For the same molecule, the Dead/treated with anesthetized guinea-pig (setting [4]) was 0/5.
On to `C[C@]12CCC(=NOCCN)CC1[C@@H](NC=O)C[C@@H]1[C@@H]2CC[C@]2(C)C(=O)CC[C@@H]12.O=C(O)/C=C/C(=O)O` (stereo partly drawn) [I-be, (E,Z) 3-(2-Aminoethoxyimino)-6α-formamidoandrostan-17-one fumarate], for which the pIC50 at Na+, K+-ATPase (setting [2]) is 6.80. Moreover, the “% of compound metabolized” value in the series with fresh rat hepatocytes worked out at 16%. Also, in the series with anesthetized guinea-pig, the “Lethal dose/ED80 (safety ratio)” value was 32.8, the “% decrease from Emax after 20 min” value is recorded as 37% and the Maximum dose infused amounted to 50.4 µmol/kg. The “Emax % increase in +dP/dTmax” value in the series on anesthetized guinea-pig (maximum increase in contractile force, slow i.v. infusion over 90 minutes) is reported as 174%. Also, in the series on anesthetized guinea-pig (setting [4]), the Dead/treated is on record as 1/5; the “ED80 (inotropic potency, dose increasing +dP/dTmax by 80%)” value was determined as 1.99 µmol/kg; the “EDmax (dose inducing maximum positive inotropic effect)” value stood at 27.4 µmol/kg.
As to `C[C@]12CC[C@H]3[C@@H](CC[C@@]4(O)C[C@H](/C=C\CCCN)CC[C@]34C)[C@@H]1CCC2=O` [I-dk, 3α-(5-Aminopent-1-(Z)-enyl)-5α-hydroxyandrostane-17-one fumarate], the pIC50 on Na+, K+-ATPase (setting [3]) was 6.16. Further, the “% of compound metabolized” value in the series with fresh rat hepatocytes came out at 12%.

By pIC50 is commonly meant the IC50 on a negative log10 scale, so that one unit is a factor of ten.
